# Laboratory results as given in patent US20160223562A1, “Method for Determining the Concentration of a Peptide” (JPT Peptide Technologies GmbH, priority 2010, published 2016).
# Square brackets hold non-standard residues; d marks the D form. Peptide text beside a SMILES is read from it. Tyr(3-NO2) = N[C@@H](Cc1ccc(O)c([N+](=O)[O-])c1)C(=O)O
# Assays:
# Trypsin [1] = target: T1, Trypsin (Sus scrofa, UniProt P00761); experiment: Trypsin cleavage of C-terminal quantification tag -SA-nitroTyr-G from peptides, LC-MS with UV detection at 350 nm; format: biochemical; conditions: after reduction and alkylation, trypsin enzyme/substrate 1:50 over night at RT
# T1 construct: purchased Promega Corporation V511
# T1 sequence (P00761 9-231): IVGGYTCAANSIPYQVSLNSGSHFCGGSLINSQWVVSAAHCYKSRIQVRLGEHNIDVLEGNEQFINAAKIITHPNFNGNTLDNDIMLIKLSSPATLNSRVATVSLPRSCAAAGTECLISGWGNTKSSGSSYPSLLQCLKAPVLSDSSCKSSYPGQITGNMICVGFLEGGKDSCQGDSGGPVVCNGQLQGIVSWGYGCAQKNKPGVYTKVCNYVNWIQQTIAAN
# Procedure: 23 peptides carrying the C-terminal quantification-tag-SA-nitroTyr-G-OH (SEQ ID NO:2) were synthesized by Fmoc-based solid phase peptide synthesis and purified by HPLC. Each peptide was subjected to the following trypsin cleavage protocol:
# (§1) Trypsin Activation: Trypsin (20 μg, sequencing grade modified trypsin, Promega Corporation, Madison, Wis., USA, catalogue no. V511, specific activity 16.965 u/mg) was dissolved in Trypsin resuspension buffer (200 μL, Promega, catalogue no. V542A, ingredient 50 mM acetic acid) and incubated for 15 min at 37° C.
# (§2) Reduction and alkylation: The peptide (approx. 0.05 mg) was dissolved in 1 M urea and 100 mM fresh ammonium hydrogen carbonate (300 μL). TCEP (Tris(2-carboxyethyl) phosphine hydrochloride, 0.2 M, 7.5 μL, final concentration 5 mM) was added and the solution incubated at 37° C. for 1 h. After addition of iodoacetamide (0.5 M, 6.0 μL, final concentration 10 mM) the solution was incubated at RT in the dark for another 30 min. Digestion: The sample was digested with activated Trypsin solution (10 μL per well, 1.0 μg, resulting enzyme/substrate ratio 1:50) over night at RT. To stop the digestion, HCl (2 M, 8 μL final concentration 50 mM) and TFA (3.2 μL, final concentration 1%, pH<2) were added. Finally, the sample was analyzed by LC-MS at 350 nm.
# Trypsin [2] = target: T1, Trypsin; experiment: Trypsin cleavage of N-terminal quantification tag Ac-nitroTyr-SGK- from peptides, LC-MS with UV detection at 350 nm; format: biochemical; conditions: for Kusebauch 24 h, RT: Percent Cleavage of Tag [by UV350 - Peptide-Tag vs. Tag]: trypsin protocol of example 9, 24 h; for cleavage efficiency in words: trypsin
# Procedure: as §1, §2
# 38 peptides carrying the N-terminal quantification-tag Ac-nitroTyr-SGK-(SEQ ID NO:32) were synthesized by SPOT synthesis (Table 3). The peptide sequences are based on two different amino acid sequences, which in each case contain 19 different amino acids N-terminally attached to lysine (the 20 naturally occurring amino acids except cysteine).
# All peptides were subjected to the same trypsin cleavage protocol as described in example 9. It is apparent that the quantification tag is efficiently cleaved (>99%) in nearly all cases.
Molecule,Percent Cleavage of Tag [by UV at 350 nm] (Trypsin [1]),"Kusebauch 24 h, RT: Percent Cleavage of Tag [by UV350 - Peptide-Tag vs. Tag] (Trypsin [2])",cleavage efficiency in words (Trypsin [2])
"CC[C@H](C)[C@H](NC(=O)[C@H](Cc1ccccc1)NC(=O)[C@H](Cc1ccc(O)cc1)NC(=O)[C@H](Cc1c[nH]cn1)NC(=O)[C@@H](NC(=O)[C@@H](NC(=O)[C@H](CCCCN)NC(=O)CNC(=O)[C@H](CO)NC(=O)[C@H](Cc1ccc(O)c([N+](=O)[O-])c1)NC(C)=O)[C@@H](C)O)[C@@H](C)O)C(=O)N[C@@H](CC(=O)O)C(=O)N[C@@H](CC(C)C)C(=O)N[C@@H](CC(N)=O)C(=O)N[C@@H](CCCCN)C(=O)O [Peptide 17, Ac-nitroTyr-SGKTTHYFIDLN-K-OH] (Ac-[Tyr(3-NO2)]SGKTTHYFIDLNK-OH)",100%,100.0%,–
Ac-nitroTyr-SGKHTHYFIDLN-K-OH (Ac-[Tyr(3-NO2)]SGKHTHYFIDLNK-OH; SMILES CC[C@H](C)[C@H](NC(=O)[C@H](Cc1ccccc1)NC(=O)[C@H](Cc1ccc(O)cc1)NC(=O)[C@H](Cc1c[nH]cn1)NC(=O)[C@@H](NC(=O)[C@H](Cc1c[nH]cn1)NC(=O)[C@H](CCCCN)NC(=O)CNC(=O)[C@H](CO)NC(=O)[C@H](Cc1ccc(O)c([N+](=O)[O-])c1)NC(C)=O)[C@@H](C)O)C(=O)N[C@@H](CC(=O)O)C(=O)N[C@@H](CC(C)C)C(=O)N[C@@H](CC(N)=O)C(=O)N[C@@H](CCCCN)C(=O)O) [Peptide 7],100%,100.0%,–
"CC(=O)N[C@@H](Cc1ccc(O)c([N+](=O)[O-])c1)C(=O)N[C@@H](CO)C(=O)NCC(=O)N[C@@H](CCCCN)C(=O)N[C@@H](C)C(=O)N[C@H](C(=O)N[C@@H](C)C(=O)N[C@@H](CC(C)C)C(=O)N[C@@H](CO)C(=O)N[C@@H](CC(C)C)C(=O)N[C@@H](CC(=O)O)C(=O)N[C@@H](CC(=O)O)C(=O)N[C@H](C(=O)N[C@@H](CCCCN)C(=O)O)C(C)C)C(C)C [Peptide 21, Ac-nitroTyr-SGKAVALSLDDV-K-OH] (Ac-[Tyr(3-NO2)]SGKAVALSLDDVK-OH)",100%,100.0%,–
Ac-nitroTyr-SGKATHYFIDLN-K-OH (Ac-[Tyr(3-NO2)]SGKATHYFIDLNK-OH; SMILES CC[C@H](C)[C@H](NC(=O)[C@H](Cc1ccccc1)NC(=O)[C@H](Cc1ccc(O)cc1)NC(=O)[C@H](Cc1c[nH]cn1)NC(=O)[C@@H](NC(=O)[C@H](C)NC(=O)[C@H](CCCCN)NC(=O)CNC(=O)[C@H](CO)NC(=O)[C@H](Cc1ccc(O)c([N+](=O)[O-])c1)NC(C)=O)[C@@H](C)O)C(=O)N[C@@H](CC(=O)O)C(=O)N[C@@H](CC(C)C)C(=O)N[C@@H](CC(N)=O)C(=O)N[C@@H](CCCCN)C(=O)O) [Peptide 1],100%,100.0%,–
"CC[C@H](C)[C@H](NC(=O)[C@H](Cc1ccccc1)NC(=O)[C@H](Cc1ccc(O)cc1)NC(=O)[C@H](Cc1c[nH]cn1)NC(=O)[C@@H](NC(=O)[C@H](CCC(=O)O)NC(=O)[C@H](CCCCN)NC(=O)CNC(=O)[C@H](CO)NC(=O)[C@H](Cc1ccc(O)c([N+](=O)[O-])c1)NC(C)=O)[C@@H](C)O)C(=O)N[C@@H](CC(=O)O)C(=O)N[C@@H](CC(C)C)C(=O)N[C@@H](CC(N)=O)C(=O)N[C@@H](CCCCN)C(=O)O [Peptide 4, Ac-nitroTyr-SGKETHYFIDLN-K-OH] (Ac-[Tyr(3-NO2)]SGKETHYFIDLNK-OH)",100%,100.0%,–
"CC[C@H](C)[C@H](NC(=O)[C@H](Cc1ccccc1)NC(=O)[C@H](Cc1ccc(O)cc1)NC(=O)[C@H](Cc1c[nH]cn1)NC(=O)[C@@H](NC(=O)[C@H](CCC(N)=O)NC(=O)[C@H](CCCCN)NC(=O)CNC(=O)[C@H](CO)NC(=O)[C@H](Cc1ccc(O)c([N+](=O)[O-])c1)NC(C)=O)[C@@H](C)O)C(=O)N[C@@H](CC(=O)O)C(=O)N[C@@H](CC(C)C)C(=O)N[C@@H](CC(N)=O)C(=O)N[C@@H](CCCCN)C(=O)O [Peptide 14, Ac-nitroTyr-SGKQTHYFIDLN-K-OH] (Ac-[Tyr(3-NO2)]SGKQTHYFIDLNK-OH)",99.6%,100.0%,–
"CC[C@H](C)[C@H](NC(=O)[C@H](Cc1ccccc1)NC(=O)[C@H](Cc1ccc(O)cc1)NC(=O)[C@H](Cc1c[nH]cn1)NC(=O)[C@@H](NC(=O)[C@H](CC(=O)O)NC(=O)[C@H](CCCCN)NC(=O)CNC(=O)[C@H](CO)NC(=O)[C@H](Cc1ccc(O)c([N+](=O)[O-])c1)NC(C)=O)[C@@H](C)O)C(=O)N[C@@H](CC(=O)O)C(=O)N[C@@H](CC(C)C)C(=O)N[C@@H](CC(N)=O)C(=O)N[C@@H](CCCCN)C(=O)O [Peptide 3, Ac-nitroTyr-SGKDTHYFIDLN-K-OH] (Ac-[Tyr(3-NO2)]SGKDTHYFIDLNK-OH)",100%,60.2%,not efficiently cleaved
"CC[C@H](C)[C@H](NC(=O)[C@H](Cc1ccccc1)NC(=O)[C@H](Cc1ccc(O)cc1)NC(=O)[C@H](Cc1c[nH]cn1)NC(=O)[C@@H](NC(=O)[C@H](Cc1c[nH]c2ccccc12)NC(=O)[C@H](CCCCN)NC(=O)CNC(=O)[C@H](CO)NC(=O)[C@H](Cc1ccc(O)c([N+](=O)[O-])c1)NC(C)=O)[C@@H](C)O)C(=O)N[C@@H](CC(=O)O)C(=O)N[C@@H](CC(C)C)C(=O)N[C@@H](CC(N)=O)C(=O)N[C@@H](CCCCN)C(=O)O [Peptide 19, Ac-nitroTyr-SGKWTHYFIDLN-K-OH] (Ac-[Tyr(3-NO2)]SGKWTHYFIDLNK-OH)",100%,100.0%,–
"CC[C@H](C)[C@H](NC(=O)[C@H](Cc1ccccc1)NC(=O)[C@H](Cc1ccc(O)cc1)NC(=O)[C@H](Cc1c[nH]cn1)NC(=O)[C@@H](NC(=O)[C@@H](NC(=O)[C@H](CCCCN)NC(=O)CNC(=O)[C@H](CO)NC(=O)[C@H](Cc1ccc(O)c([N+](=O)[O-])c1)NC(C)=O)[C@@H](C)CC)[C@@H](C)O)C(=O)N[C@@H](CC(=O)O)C(=O)N[C@@H](CC(C)C)C(=O)N[C@@H](CC(N)=O)C(=O)N[C@@H](CCCCN)C(=O)O [Peptide 8, Ac-nitroTyr-SGKITHYFIDLN-K-OH] (Ac-[Tyr(3-NO2)]SGKITHYFIDLNK-OH)",100%,100.0%,–
"CC(=O)N[C@@H](Cc1ccc(O)c([N+](=O)[O-])c1)C(=O)N[C@@H](CO)C(=O)NCC(=O)N[C@@H](CCCCN)C(=O)N[C@@H](CC(=O)O)C(=O)N[C@H](C(=O)N[C@@H](C)C(=O)N[C@@H](CC(C)C)C(=O)N[C@@H](CO)C(=O)N[C@@H](CC(C)C)C(=O)N[C@@H](CC(=O)O)C(=O)N[C@@H](CC(=O)O)C(=O)N[C@H](C(=O)N[C@@H](CCCCN)C(=O)O)C(C)C)C(C)C [Peptide 23, Ac-nitroTyr-SGKDVALSLDDV-K-OH] (Ac-[Tyr(3-NO2)]SGKDVALSLDDVK-OH)",100%,59.2%,not efficiently cleaved
